Measurements published in patent US20220033397A1, “PHARMACEUTICAL COMPOUNDS AND THEIR USE AS INHIBITORS OF UBIQUITIN SPECIFIC PROTEASE 19 (USP19)” (ALMAC DISCOVERY LIMITED, priority 2018, published 2022).

Biological target: T1, Full-length USP19 (Homo sapiens, UniProt O94966)
T1 construct: Full-length USP19 was purchased from Boston Biochem (E-576); purchased Boston Biochem E-576
T1 sequence (O94966 1-1318): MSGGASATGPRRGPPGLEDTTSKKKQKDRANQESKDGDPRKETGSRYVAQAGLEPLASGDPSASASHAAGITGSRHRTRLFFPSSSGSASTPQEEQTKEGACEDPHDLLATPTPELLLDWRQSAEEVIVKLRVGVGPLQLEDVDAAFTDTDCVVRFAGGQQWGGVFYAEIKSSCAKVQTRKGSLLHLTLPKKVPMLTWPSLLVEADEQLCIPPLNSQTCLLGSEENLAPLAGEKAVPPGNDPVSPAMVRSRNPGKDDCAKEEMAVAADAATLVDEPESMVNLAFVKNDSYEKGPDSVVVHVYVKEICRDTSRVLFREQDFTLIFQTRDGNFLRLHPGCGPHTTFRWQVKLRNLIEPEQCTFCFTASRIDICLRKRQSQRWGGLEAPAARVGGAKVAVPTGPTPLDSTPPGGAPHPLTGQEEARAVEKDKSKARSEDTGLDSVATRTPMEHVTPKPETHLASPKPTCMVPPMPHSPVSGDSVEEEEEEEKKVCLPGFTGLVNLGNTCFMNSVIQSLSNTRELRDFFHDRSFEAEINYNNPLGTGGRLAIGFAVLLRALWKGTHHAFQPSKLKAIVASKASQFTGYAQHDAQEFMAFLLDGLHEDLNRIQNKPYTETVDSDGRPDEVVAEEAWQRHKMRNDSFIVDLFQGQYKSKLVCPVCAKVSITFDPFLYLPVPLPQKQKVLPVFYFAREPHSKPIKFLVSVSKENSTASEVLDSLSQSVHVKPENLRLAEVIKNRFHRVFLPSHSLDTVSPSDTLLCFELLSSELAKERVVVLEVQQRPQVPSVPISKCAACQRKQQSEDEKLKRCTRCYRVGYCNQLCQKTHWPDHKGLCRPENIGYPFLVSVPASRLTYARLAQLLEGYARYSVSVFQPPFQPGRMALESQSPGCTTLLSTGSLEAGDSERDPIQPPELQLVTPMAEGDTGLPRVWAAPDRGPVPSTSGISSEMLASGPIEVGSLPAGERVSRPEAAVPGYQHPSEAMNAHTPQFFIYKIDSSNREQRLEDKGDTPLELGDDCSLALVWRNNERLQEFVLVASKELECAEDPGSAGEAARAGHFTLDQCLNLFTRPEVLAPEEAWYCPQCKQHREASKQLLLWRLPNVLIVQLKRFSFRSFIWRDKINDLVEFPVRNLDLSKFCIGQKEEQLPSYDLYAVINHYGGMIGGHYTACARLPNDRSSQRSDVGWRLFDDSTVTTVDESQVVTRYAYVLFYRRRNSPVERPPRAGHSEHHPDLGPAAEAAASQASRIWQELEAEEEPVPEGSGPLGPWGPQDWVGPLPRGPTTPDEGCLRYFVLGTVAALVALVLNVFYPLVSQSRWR
Assay: USP19 fluorescence polarisation (FP) homogeneous assay with Ubiquitin-Lys-TAMRA substrate
Type: biochemical
Conditions: 2.5 nM USP19, 30 min pre-incubation, average of at least two duplicate experiments
How it was run: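 Full-length USP19 preincubated 30 min at RT with inhibitor (200 μM to 2 μM series, 8–18 points) before adding 500 nM Ubiquitin-Lys-TAMRA substrate.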

Row | SMILES | IC50
1 | O=C(N1CCC(O)(Cn2cnc3cc(F)c(F)cc3c2=O)C2(CCCC2)C1)N1CCNC[C@H]1c1ccccc1 (stereo partly drawn) [Example 170, 6,7-Difluoro-3-((10-hydroxy-7-((R)-2-phenylpiperazine-1-carbonyl)-7-azaspiro[4.5]decan-10-yl)methyl)quinazolin-4(3H)-one] | < 0.5 µM
2 | O=C(N1CCC(O)(Cn2ccc3ccncc3c2=O)C2(CCCC2)C1)N1CCNC[C@H]1c1ccccc1 (stereo partly drawn) [Example 171, 2-((10-Hydroxy-7-((R)-2-phenylpiperazine-1-carbonyl)-7-azaspiro[4.5]decan-10-yl)methyl)-2,7-naphthyridin-1(2H)-one] | < 0.5 µM
3 | O=C(N1CCC(O)(Cn2cnc3c(cnn3Cc3ccccc3)c2=O)C2(CCCC2)C1)N1CCNC[C@H]1c1ccccc1 (stereo partly drawn) [Example 172, 1-Benzyl-5-((10-hydroxy-7-((R)-2-phenylpiperazine-1-carbonyl)-7-azaspiro[4.5]decan-10-yl)methyl)-1,5-dihydro-4H-pyrazolo[3,4-d]pyrimidin-4-one] | < 0.5 µM
4 | C[C@H](CC1CCCCC1)C(=O)N1CCC(O)(Cn2cnc3cn(C)nc3c2=O)C2(CCCC2)C1 (stereo partly drawn) [Example 173, 6-((7-((R)-3-Cyclohexyl-2-methylpropanoyl)-10-hydroxy-7-azaspiro[4.5]decan-10-yl)methyl)-2-methyl-2,6-dihydro-7H-pyrazolo[4,3-d]pyrimidin-7-one] | 5 to 50 µM
5 | C[C@H](CC1CCCCC1)C(=O)N1CCC(O)(Cn2c(=O)c3cncnc3n2C)C2(CCCC2)C1 (stereo partly drawn) [Example 174, 2-((7-((R)-3-Cyclohexyl-2-methylpropanoyl)-10-hydroxy-7-azaspiro[4.5]decan-10-yl)methyl)-1-methyl-1,2-dihydro-3H-pyrazolo[3,4-d]pyrimidin-3-one] | 5 to 50 µM
6 | Cn1c2ncncc2c(=O)n1CC1(O)CCN(C(=O)N2CCNC[C@H]2c2ccccc2)CC12CCCC2 (stereo partly drawn) [Example 175, 2-((10-Hydroxy-7-((R)-2-phenylpiperazine-1-carbonyl)-7-azaspiro[4.5]decan-10-yl)methyl)-1-methyl-1,2-dihydro-3H-pyrazolo[3,4-d]pyrimidin-3-one] | 5 to 50 µM
7 | C[C@H](CC1CCCCC1)C(=O)N1CCC(O)(Cn2cnc3c(cnn3-c3ccccc3)c2=O)C2(CCCC2)C1 (stereo partly drawn) [Example 176, 5-((7-((R)-3-Cyclohexyl-2-methylpropanoyl)-10-hydroxy-7-azaspiro[4.5]decan-10-yl)methyl)-1-phenyl-1,5-dihydro-4H-pyrazolo[3,4-d]pyrimidin-4-one] | < 0.5 µM
8 | C[C@H](CC(F)(F)F)C(=O)N1CCC(O)(Cn2cnc3c(cnn3-c3ccccc3)c2=O)C2(CCCC2)C1 (stereo partly drawn) [Example 177, 5-((10-Hydroxy-7-((R)-4,4,4-trifluoro-2-methylbutanoyl)-7-azaspiro[4.5]decan-10-yl)methyl)-1-phenyl-1,5-dihydro-4H-pyrazolo[3,4-d]pyrimidin-4-one] | 5 to 50 µM
9 | O=C(N1CCC(O)(Cn2cnc3c(cnn3-c3ccccc3)c2=O)C2(CCCC2)C1)N1CCNC[C@H]1c1ccccc1 (stereo partly drawn) [Example 178, 5-((10-Hydroxy-7-((R)-2-phenylpiperazine-1-carbonyl)-7-azaspiro[4.5]decan-10-yl)methyl)-1-phenyl-1,5-dihydro-4H-pyrazolo[3,4-d]pyrimidin-4-one] | < 0.5 µM
10 | Cn1cc2ncn(CC3(O)CCN(C(=O)N4CCNC[C@H]4c4ccccc4)CC34CCCC4)c(=O)c2n1 (stereo partly drawn) [Example 179, 6-((10-Hydroxy-7-((R)-2-phenylpiperazine-1-carbonyl)-7-azaspiro[4.5]decan-10-yl)methyl)-2-methyl-2,6-dihydro-7H-pyrazolo[4,3-d]pyrimidin-7-one] | 5 to 50 µM
11 | C[C@H](CC(F)(F)F)C(=O)N1CCC(O)(Cn2cnc3c(cnn3C)c2=O)C2(CCCC2)C1 (stereo partly drawn) [Example 180, 5-((10-Hydroxy-7-((R)-4,4,4-trifluoro-2-methylbutanoyl)-7-azaspiro[4.5]decan-10-yl)methyl)-1-methyl-1,5-dihydro-4H-pyrazolo[3,4-d]pyrimidin-4-one] | 5 to 50 µM

The next lines start with the values.

Row | IC50 | SMILES
12 | 5 to 50 µM | C[C@H](CC(F)(F)F)C(=O)N1CCC(O)(Cn2cnc3c(cnn3C3CC3)c2=O)C2(CCCC2)C1 (stereo partly drawn) [Example 181, 1-Cyclopropyl-5-((10-hydroxy-7-((R)-4,4,4-trifluoro-2-methylbutanoyl)-7-azaspiro[4.5]decan-10-yl)methyl)-1,5-dihydro-4H-pyrazolo[3,4-d]pyrimidin-4-one]
13 | < 0.5 µM | Cn1ncc2c(=O)n(CC3(O)CCN(C(=O)N4CCNC[C@H]4c4ccccc4)CC34CCCC4)cnc21 (stereo partly drawn) [Example 182, 5-((10-Hydroxy-7-((R)-2-phenylpiperazine-1-carbonyl)-7-azaspiro[4.5]decan-10-yl)methyl)-1-methyl-1,5-dihydro-4H-pyrazolo[3,4-d]pyrimidin-4-one]
14 | < 0.5 µM | O=C(N1CCC(O)(Cn2cnc3c(cnn3C3CC3)c2=O)C2(CCCC2)C1)N1CCNC[C@H]1c1ccccc1 (stereo partly drawn) [Example 183, 1-Cyclopropyl-5-((10-hydroxy-7-((R)-2-phenylpiperazine-1-carbonyl)-7-azaspiro[4.5]decan-10-yl)methyl)-1,5-dihydro-4H-pyrazolo[3,4-d]pyrimidin-4-one]
15 | < 0.5 µM | CSc1ncc2c(=O)n(C[C@]3(O)CCN(C(=O)N4CCNC[C@H]4c4ccccc4)CC34CCCC4)ccc2n1 [Example 184, 6-(((S)-10-Hydroxy-7-((R)-2-phenylpiperazine-1-carbonyl)-7-azaspiro[4.5]decan-10-yl)methyl)-2-(methylthio)pyrido[4,3-d]pyrimidin-5(6H)-one]
16 | < 0.5 µM | O=C(N1CC[C@@](O)(Cn2ccc3ncncc3c2=O)C2(CCCC2)C1)N1CCNC[C@H]1c1ccccc1 [Example 185, 6-(((S)-10-Hydroxy-7-((R)-2-phenylpiperazine-1-carbonyl)-7-azaspiro[4.5]decan-10-yl)methyl)pyrido[4,3-d]pyrimidin-5(6H)-one]
17 | < 0.5 µM | CSc1cn(CC2(O)CCN(C(=O)N3CCNC[C@H]3c3ccccc3)CC23CCCC3)c(=O)cc1-c1ccccc1 (stereo partly drawn) [Example 186, 1-((10-Hydroxy-7-((R)-2-phenylpiperazine-1-carbonyl)-7-azaspiro[4.5]decan-10-yl)methyl)-5-(methylthio)-4-phenylpyridin-2(1H)-one]
18 | < 0.5 µM | C[S+]([O-])c1cn(CC2(O)CCN(C(=O)N3CCNC[C@H]3c3ccccc3)CC23CCCC3)c(=O)cc1-c1ccccc1 (stereo partly drawn) [Example 187, 1-((10-Hydroxy-7-((R)-2-phenylpiperazine-1-carbonyl)-7-azaspiro[4.5]decan-10-yl)methyl)-5-(methylsulfinyl)-4-phenylpyridin-2(1H)-one]
19 | < 0.5 µM | CS(=O)(=O)c1cn(CC2(O)CCN(C(=O)N3CCNC[C@H]3c3ccccc3)CC23CCCC3)c(=O)cc1-c1ccccc1 (stereo partly drawn) [Example 188, 1-((10-Hydroxy-7-((R)-2-phenylpiperazine-1-carbonyl)-7-azaspiro[4.5]decan-10-yl)methyl)-5-(methylsulfonyl)-4-phenylpyridin-2(1H)-one]
20 | < 0.5 µM | CS(=N)(=O)c1cn(CC2(O)CCN(C(=O)N3CCNC[C@H]3c3ccccc3)CC23CCCC3)c(=O)cc1-c1ccccc1 (stereo partly drawn) [Example 189, 1-((10-Hydroxy-7-((R)-2-phenylpiperazine-1-carbonyl)-7-azaspiro[4.5]decan-10-yl)methyl)-5-(S-methylsulfonimidoyl)-4-phenylpyridin-2(1H)-one]
